Active and inactive are the calls of the source.
Experiments:
[1] = target: T1, Protein RecA (Mycobacterium tuberculosis, UniProt P9WHJ3); test: Fluorescence Cell-Free Homogeneous Dose Retest to Identify Inhibitors of RecA-Intein Splicing Activity. [Related pubchem assays (depositor defined):AID2097, AID2223, AID489010, AID492950]; assay type: functional
T1 sequence (P9WHJ3 whole entry): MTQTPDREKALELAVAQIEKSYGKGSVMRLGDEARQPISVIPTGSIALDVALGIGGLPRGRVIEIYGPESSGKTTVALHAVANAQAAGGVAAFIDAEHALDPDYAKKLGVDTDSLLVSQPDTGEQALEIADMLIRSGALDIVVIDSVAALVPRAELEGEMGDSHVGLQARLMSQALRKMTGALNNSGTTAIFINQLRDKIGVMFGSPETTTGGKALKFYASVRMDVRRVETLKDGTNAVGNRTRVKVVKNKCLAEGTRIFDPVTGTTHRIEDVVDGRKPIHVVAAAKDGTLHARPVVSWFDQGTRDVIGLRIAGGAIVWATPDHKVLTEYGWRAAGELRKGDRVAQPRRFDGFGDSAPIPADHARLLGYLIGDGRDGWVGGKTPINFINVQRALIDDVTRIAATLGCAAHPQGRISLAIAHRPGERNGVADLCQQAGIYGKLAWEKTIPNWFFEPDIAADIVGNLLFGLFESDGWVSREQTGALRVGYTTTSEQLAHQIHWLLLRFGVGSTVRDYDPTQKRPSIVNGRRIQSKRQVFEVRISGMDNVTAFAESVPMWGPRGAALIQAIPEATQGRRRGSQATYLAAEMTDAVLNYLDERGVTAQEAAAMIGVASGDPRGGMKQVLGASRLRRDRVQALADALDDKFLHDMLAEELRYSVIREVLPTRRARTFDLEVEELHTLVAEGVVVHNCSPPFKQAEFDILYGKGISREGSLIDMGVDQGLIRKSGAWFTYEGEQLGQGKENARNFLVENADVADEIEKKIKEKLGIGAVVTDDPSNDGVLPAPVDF

[2] = target: T2, Replicative DNA helicase DnaB (Mycobacterium tuberculosis, UniProt P9WMR3); test: DnaB intein splicing inhibitors, dose response, biochemical, cell-free fluorescence (AID 449749); assay type: functional
T2 sequence (P9WMR3 whole entry): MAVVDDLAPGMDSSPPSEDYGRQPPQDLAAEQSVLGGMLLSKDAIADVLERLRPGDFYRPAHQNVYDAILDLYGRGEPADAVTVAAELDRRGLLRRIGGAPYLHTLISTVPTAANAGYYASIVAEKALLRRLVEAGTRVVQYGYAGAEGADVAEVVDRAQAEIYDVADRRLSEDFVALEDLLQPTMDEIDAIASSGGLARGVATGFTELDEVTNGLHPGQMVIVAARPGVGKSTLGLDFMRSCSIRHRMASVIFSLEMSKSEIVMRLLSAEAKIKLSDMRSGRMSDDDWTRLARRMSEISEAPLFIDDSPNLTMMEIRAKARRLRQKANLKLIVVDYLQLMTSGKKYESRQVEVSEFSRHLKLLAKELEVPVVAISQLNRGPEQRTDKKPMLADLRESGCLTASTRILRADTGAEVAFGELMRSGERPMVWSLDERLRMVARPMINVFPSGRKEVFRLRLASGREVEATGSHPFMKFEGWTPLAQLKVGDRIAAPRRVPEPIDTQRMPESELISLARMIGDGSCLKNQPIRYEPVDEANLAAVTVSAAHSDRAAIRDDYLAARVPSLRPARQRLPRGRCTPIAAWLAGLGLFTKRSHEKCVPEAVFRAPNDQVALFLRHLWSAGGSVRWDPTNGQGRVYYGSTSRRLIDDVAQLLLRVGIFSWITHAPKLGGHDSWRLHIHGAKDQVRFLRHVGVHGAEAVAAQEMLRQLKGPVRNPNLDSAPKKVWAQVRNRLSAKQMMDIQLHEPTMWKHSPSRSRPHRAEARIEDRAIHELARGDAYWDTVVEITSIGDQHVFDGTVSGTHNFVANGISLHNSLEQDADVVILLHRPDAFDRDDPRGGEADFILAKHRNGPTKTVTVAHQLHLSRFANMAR

[3] = target: T3, Tyrosyl-DNA phosphodiesterase 2 (Homo sapiens, UniProt O95551); test: potency against TDP2 phosphodiesterase activity – biochemical, epi absorbance, IC50, dose response (AID 743297)
T3 sequence (O95551 whole entry): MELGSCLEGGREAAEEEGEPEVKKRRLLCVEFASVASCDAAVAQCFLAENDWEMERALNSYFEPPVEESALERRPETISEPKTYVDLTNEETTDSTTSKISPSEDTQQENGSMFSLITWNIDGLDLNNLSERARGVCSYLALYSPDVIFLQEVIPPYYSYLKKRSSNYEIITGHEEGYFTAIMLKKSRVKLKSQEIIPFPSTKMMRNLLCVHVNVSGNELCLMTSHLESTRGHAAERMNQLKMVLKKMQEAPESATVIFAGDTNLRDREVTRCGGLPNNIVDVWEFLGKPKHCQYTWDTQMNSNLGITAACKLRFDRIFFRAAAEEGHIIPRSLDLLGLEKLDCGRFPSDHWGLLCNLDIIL

Structure (SMILES): Cc1ccc(S(=O)(=O)/N=C2\C=C(Nc3cccc(C(=O)O)c3)C(=O)c3ccccc32)c(C)c1
- EC50 [1]: 15 µM (active)
- AC50 [2]: 27 µM (active)
- IC50 [3]: 2.58 µM (active)

Structure (SMILES): COc1ccc(NC(=O)/C(Cl)=C(/Cl)[S+]([O-])Cc2ccccc2)cn1 (stereo not drawn)
- EC50 [1]: 3.14 µM (active)
- AC50 [2]: 3.35 µM (active)

Structure (SMILES): Nc1ccc(N2CCCCC2)c2nonc12
- EC50 [1]: 2.76 µM (active)
- AC50 [2]: 5.14 µM (active)
- IC50 [3]: 79.7 µM (inactive)
